Numbers after ± are expanded uncertainties.
Assays:
[1] = refractive index (Na D-line) (dimensionless); settings: Liquid, Standard Abbe refractometry
[2] = Liquid; for speed of sound: Sing-around technique in a fixed-path interferometer; for mass density: Vibrating tube method
[3] = refractive index (Na D-line) (dimensionless); mn = molality of the nth substance listed, in mol/kg; settings: 86.5 kPa, Liquid, Standard Abbe refractometry, m2 = 0
[4] = mn = molality of the nth substance listed, in mol/kg; settings: 86.5 kPa, Liquid, m2 = 0; for speed of sound: Frequency=3 MHz, Sing-around technique in a fixed-path interferometer; for mass density: Vibrating tube method
[5] = 288.15 K, 86.5 kPa, Frequency=3 MHz
[6] = 293.15 K, 86.5 kPa, Frequency=3 MHz
[7] = 298.15 K, 86.5 kPa, Frequency=3 MHz
[8] = 303.15 K, 86.5 kPa, Frequency=3 MHz

SMILES | refractive index ([1]; 288.15 K, 86.5 kPa) | refractive index ([1]; 293.15 K, 86.5 kPa) | refractive index ([1]; 298.15 K, 86.5 kPa) | refractive index ([1]; 303.15 K, 86.5 kPa) | speed of sound [2, 5] | mass density ([2]; 288.15 K, 86.5 kPa) | speed of sound [2, 6] | mass density ([2]; 293.15 K, 86.5 kPa) | speed of sound [2, 7] | mass density ([2]; 298.15 K, 86.5 kPa) | speed of sound [2, 8] | mass density ([2]; 303.15 K, 86.5 kPa) | other results
c1ccsc1 [thiophene] |  |  |  |  |  |  |  |  |  |  |  |  | refractive index ([1]; 298.15 K, 101.33 kPa): 1.5252 ± 0.0011; speed of sound ([2]; 298.15 K, 101.33 kPa): 1279 ± 1.3 m/s; mass density ([2]; 298.15 K, 101.33 kPa): 1058.56 ± 7 kg/m3; speed of sound ([2]; 303.15 K, 101.33 kPa): 1258.7 ± 1.3 m/s
CCCCCCn1cc[n+](C)c1.[Br-] [3-hexyl-1-methyl-1H-imidazolium bromide] | 1.5282 ± 0.0012 | 1.5268 ± 0.0012 | 1.5254 ± 0.0012 | 1.5237 ± 0.0012 | 1639.4 ± 3.2 m/s | 1231.02 ± 7.5 kg/m3 | 1610.4 ± 3.2 m/s | 1227.43 ± 7.5 kg/m3 | 1587.1 ± 3.2 m/s | 1223.74 ± 7.5 kg/m3 | 1568.7 ± 3.2 m/s | 1220.35 ± 7.5 kg/m3 | 
CCCCCCCC [octane] + c1ccsc1 |  |  |  |  |  |  |  |  |  |  |  |  | refractive index ([3]; 288.15 K): 1.3998 ± 0.0015; refractive index ([3]; 293.15 K): 1.3973 ± 0.0015; refractive index ([3]; 298.15 K): 1.3949 ± 0.0015; refractive index ([3]; 303.15 K): 1.3924 ± 0.0015; speed of sound ([4]; 288.15 K): 1214.5 ± 5.1 m/s; mass density ([4]; 288.15 K): 706.994 ± 7.5 kg/m3; speed of sound ([4]; 293.15 K): 1193.3 ± 5.1 m/s; mass density ([4]; 293.15 K): 702.995 ± 7.5 kg/m3; speed of sound ([4]; 298.15 K): 1172.4 ± 5.1 m/s; mass density ([4]; 298.15 K): 698.923 ± 7.4 kg/m3; speed of sound ([4]; 303.15 K): 1151.5 ± 5.1 m/s; mass density ([4]; 303.15 K): 694.878 ± 7.4 kg/m3
CCCCCCCCn1cc[n+](C)c1.[Br-] [1-methyl-3-octylimidazolium bromide] | 1.525 ± 0.0012 | 1.5236 ± 0.0012 | 1.5221 ± 0.0012 | 1.5206 ± 0.0012 | 1605.2 ± 3.2 m/s | 1179.37 ± 7.4 kg/m3 | 1581.9 ± 3.2 m/s | 1176.17 ± 7.4 kg/m3 | 1561.9 ± 3.2 m/s | 1172.98 ± 7.4 kg/m3 | 1542.8 ± 3.2 m/s | 1169.86 ± 7.4 kg/m3 | 
CCCCCCCC [octane] | 1.3998 ± 0.0015 | 1.3973 ± 0.0015 | 1.3949 ± 0.0015 | 1.3924 ± 0.0015 | 1214.5 ± 5.1 m/s | 706.994 ± 7.5 kg/m3 | 1193.3 ± 5.1 m/s | 702.995 ± 7.5 kg/m3 | 1172.4 ± 5.1 m/s | 698.923 ± 7.4 kg/m3 | 1151.5 ± 5.1 m/s | 694.878 ± 7.4 kg/m3 | 
